Data on 4 compounds can be found in article PMC7407242, “Deamidated Human Triosephosphate Isomerase is a Promising Druggable Target” (Biomolecules, 2020).

Assay [1] addresses T1, HsTIM (human triosephosphate isomerase) (Homo sapiens, UniProt P60174). In words: TIM activity in lysate of treated E. coli tim-deletion cells. It is filed as cell-based. More on the design: gene TPI1; full-length; tagged plasmid in E. coli tim-deletion BL21-Gold(DE3) cells for omeprazole; homodimer, 5 Cys per subunit. The note with it: residual activity; 0.75 mM omeprazole, 22 h at 37 °C, M9 medium; covalent. From the text:
TIM activity in lysate of treated E. coli tim-deletion cells on HsTIM (human triosephosphate isomerase)

Assay [2] deals with T1, HsTIM (human triosephosphate isomerase). In words: Ellman free thiol count after derivatization. It counts as binding. Set-up: gene TPI1; full-length; recombinant E. coli BL21-CodonPlus(DE3)-RIL, vector pET3a-HisTEV, N-terminal His6-TEV tag cut by TEVp for purified assays; tagged plasmid in E. coli tim-deletion BL21-Gold(DE3) cells for omeprazole; homodimer, 5 Cys per subunit. The following applies: covalent; 250 µM compound, 2 h at 37 °C, enzyme 0.5 mg/mL, TE buffer pH 7.4. From the text: Ellman free thiol count after derivatization on HsTIM (human triosephosphate isomerase)
A general note: DTNB colorimetry detects thiols as they appear.

Assay [3] has as its target T2, HsTIM (human triosephosphate isomerase) (Homo sapiens, UniProt P60174, N16D).
T2 construct: gene TPI1; full-length; recombinant E. coli BL21-CodonPlus(DE3)-RIL, vector pET3a-HisTEV, N-terminal His6-TEV tag cut by TEVp for purified assays; tagged plasmid in E. coli tim-deletion BL21-Gold(DE3) cells for omeprazole; homodimer, 5 Cys per subunit
In words: residual activity after preincubation, coupled alpha-GPDH / NADH assay at […] nm. It counts as biochemical. The note with it: read-out: activity dropped to 50%.

T1 sequence (P60174 2-249): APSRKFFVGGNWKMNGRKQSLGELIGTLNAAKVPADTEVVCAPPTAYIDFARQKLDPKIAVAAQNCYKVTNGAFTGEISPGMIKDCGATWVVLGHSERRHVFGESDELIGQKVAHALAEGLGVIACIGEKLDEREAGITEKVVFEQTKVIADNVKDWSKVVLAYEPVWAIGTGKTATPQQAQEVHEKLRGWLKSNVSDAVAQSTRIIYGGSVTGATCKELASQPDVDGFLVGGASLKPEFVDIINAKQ
T2 sequence (P60174 2-249 N16D): as the sequence (P60174 2-249) above, with N15D counted along it

`COc1ccc2[nH]c([S+]([O-])Cc3ncc(C)c(OC)c3C)nc2c1` (stereo not drawn) [omeprazole]: the “Enzyme Activity (%)” value in assay [1] came out at 96 ± 4%.
Turning to `CS(=O)(=O)SCCS(=O)(=O)O` [MTSES, sodium 2-[(methylsulfonyl)sulfanyl] ethanesulfonate], in assay [2], the “Derivatized Cys/Subunit” value worked out at 1 Cys/subunit. The IC50 in assay [3] is 6 µM.
In the case of `O=C(O)c1cc(SSc2ccc([N+](=O)[O-])c(C(=O)O)c2)ccc1[N+](=O)[O-]` [DTNB, 5,5′-dithiobis-(2-nitrobenzoic acid)], in assay [3], the IC50 worked out at 3 µM.
`CSS(C)(=O)=O` [MMTS]: the “Derivatized Cys/Subunit” value in assay [2] worked out at 1 Cys/subunit. Besides, the IC50 in assay [3] turned out to be 7.5 µM.
